Test results from patent US11505536B2, “Dihydroorotate dehydrogenase inhibitors” (Janssen Biotech, Inc., priority 2019, dated 2022).
pIC50: −log10 of the molar value.

Experiments:
human DHODH = human DHODH (Homo sapiens (Human), UniProt Q02127); assay: DHODH Enzymatic Assay; type: biochemical; settings: purified human DHODH, DCIP absorbance, end-point mode; read-out: hDHODH IC50
Method in brief: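 Purified human DHODH in […] HEPES pH 7.5, 150 mM NaCl, 0.5 mM EDTA, 0.1% Triton X-100; reaction started with substrate mix of 20 mM DHO, 5 mM CoQ6, 1 mM DCIP. End-point read as DCIP reduction (absorbance ~600 nm) after brequinar quench.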

[1] = system: MOLM-13 cells (human acute myeloid leukemia cells); assay: MOLM-13 Cellular Assay; type: cell-based; settings: Homo sapiens, MOLM-13, 72 h, 72 hours exposure, cell viability by CellTiter-Glo
Method in brief: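 MOLM-13 AML cells, seeded at 5,000/well in RPMI 1640 with 10% FBS, were treated with compounds right after seeding for 72 h at 37 °C, 5% CO2. Viability read by CellTiter-Glo luminescence.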

Sequence of human DHODH (Q02127 whole entry): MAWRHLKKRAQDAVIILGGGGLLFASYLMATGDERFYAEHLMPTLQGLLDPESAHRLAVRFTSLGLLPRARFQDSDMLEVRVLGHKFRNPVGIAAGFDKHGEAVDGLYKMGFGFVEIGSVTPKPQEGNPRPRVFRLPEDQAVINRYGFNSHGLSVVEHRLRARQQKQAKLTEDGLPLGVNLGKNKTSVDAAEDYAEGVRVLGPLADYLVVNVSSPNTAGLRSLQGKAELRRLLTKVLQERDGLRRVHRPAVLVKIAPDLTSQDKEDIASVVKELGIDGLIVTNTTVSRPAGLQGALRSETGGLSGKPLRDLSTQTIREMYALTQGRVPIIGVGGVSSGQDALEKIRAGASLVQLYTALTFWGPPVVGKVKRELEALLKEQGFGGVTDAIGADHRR

CCn1c(CO)nn(-c2cc3c(C(C)C)cn(-c4nc(C)ccc4Cl)c(=O)c3cc2F)c1=O [Example 108, 2-(3-Chloro-6-methylpyridin-2-yl)-6-(4-ethyl-3-(hydroxymethyl)-5-oxo-4,5-dihydro-1H-1,2,4-triazol-1-yl)-7-fluoro-4-isopropylisoquinolin-1(2H)-one]
pIC50 (human DHODH): 8.51 | pIC50 [1]: 8.22

CCn1c(CO)nn(-c2cc3c(C(C)C)cn(C4CCCC4)c(=O)c3cc2F)c1=O [Example 109, 2-Cyclopentyl-6-(4-ethyl-3-(hydroxymethyl)-5-oxo-4,5-dihydro-1H-1,2,4-triazol-1-yl)-7-fluoro-4-isopropylisoquinolin-1(2H)-one]
pIC50 (human DHODH): 8.27 | pIC50 [1]: 8.05

CCn1c(CO)nn(-c2cc3c(C(C)C)cn(-c4nccc(OC)c4Cl)c(=O)c3cc2F)c1=O [Example 110, 2-(3-Chloro-4-methoxypyridin-2-yl)-6-(4-ethyl-3-(hydroxymethyl)-5-oxo-4,5-dihydro-1H-1,2,4-triazol-1-yl)-7-fluoro-4-isopropylisoquinolin-1(2H)-one]
pIC50 (human DHODH): 7.98 | pIC50 [1]: 7.70

CCn1c(CO)nn(-c2cc3c(C(C)C)cn([C@@H]4CCCC[C@@H]4C)c(=O)c3cc2F)c1=O [Example 111, 6-(4-Ethyl-3-(hydroxymethyl)-5-oxo-4,5-dihydro-1H-1,2,4-triazol-1-yl)-7-fluoro-4-isopropyl-2-((1R,2S)-2-methylcyclohexyl)isoquinolin-1(2H)-one]
pIC50 (human DHODH): 8.45 | pIC50 [1]: 9.15

CCn1c(CO)nn(-c2cc3c(C(C)C)cn(C(COC)COC)c(=O)c3cc2F)c1=O [Example 112, 2-(1,3-Dimethoxypropan-2-yl)-6-(4-ethyl-3-(hydroxymethyl)-5-oxo-4,5-dihydro-1H-1,2,4-triazol-1-yl)-7-fluoro-4-isopropylisoquinolin-1(2H)-one]
pIC50 (human DHODH): 7.45 | pIC50 [1]: 7.52

CCn1c(CO)nn(-c2cc3c(C(C)C)cn(-c4cc(OC)ncc4C)c(=O)c3cc2F)c1=O [Example 113, 6-(4-Ethyl-3-(hydroxymethyl)-5-oxo-4,5-dihydro-1H-1,2,4-triazol-1-yl)-7-fluoro-4-isopropyl-2-(2-methoxy-5-methylpyridin-4-yl)isoquinolin-1(2H)-one]
pIC50 (human DHODH): 8.68 | pIC50 [1]: 8.52

CCn1c(CO)nn(-c2cc3c(C(C)C)cn([C@H]4CCCC[C@H]4C)c(=O)c3cc2F)c1=O [Example 114, 6-(4-Ethyl-3-(hydroxymethyl)-5-oxo-4,5-dihydro-1H-1,2,4-triazol-1-yl)-7-fluoro-4-isopropyl-2-((1S,2R)-2-methylcyclohexyl)isoquinolin-1(2H)-one]
pIC50 (human DHODH): 7.94 | pIC50 [1]: 8.52

CCn1c(CO)nn(-c2cc3c(C(C)C)cn(CC4CC4)c(=O)c3cc2F)c1=O [Example 115, 2-(Cyclopropylmethyl)-6-(4-ethyl-3-(hydroxymethyl)-5-oxo-4,5-dihydro-1H-1,2,4-triazol-1-yl)-7-fluoro-4-isopropylisoquinolin-1(2H)-one]
pIC50 (human DHODH): 7.29 | pIC50 [1]: 7.10

CCC(COC)n1cc(C(C)C)c2cc(-n3nc(CO)n(CC)c3=O)c(F)cc2c1=O (stereo not drawn) [Example 116, 6-(4-Ethyl-3-(hydroxymethyl)-5-oxo-4,5-dihydro-1H-1,2,4-triazol-1-yl)-7-fluoro-4-isopropyl-2-(1-methoxybutan-2-yl)isoquinolin-1(2H)-one]
pIC50 (human DHODH): 7.51 | pIC50 [1]: 7.70

CCn1c(CO)nn(-c2cc3c(C(C)C)cn(-c4ncccc4C)c(=O)c3cc2F)c1=O [Example 118, 6-(4-Ethyl-3-(hydroxymethyl)-5-oxo-4,5-dihydro-1H-1,2,4-triazol-1-yl)-7-fluoro-4-isopropyl-2-(3-methylpyridin-2-yl)isoquinolin-1(2H)-one]
pIC50 (human DHODH): 7.83 | pIC50 [1]: 8.00

CCC(CC)n1cc(C(C)C)c2cc(-n3nc(CO)n(CC)c3=O)c(F)cc2c1=O [Example 122, 6-(4-Ethyl-3-(hydroxymethyl)-5-oxo-4,5-dihydro-1H-1,2,4-triazol-1-yl)-7-fluoro-4-isopropyl-2-(pentan-3-yl)isoquinolin-1(2H)-one]
pIC50 (human DHODH): 7.87 | pIC50 [1]: 8.00

CCn1c(CO)nn(-c2cc3c(C(C)C)cn(C45CCC(CC4)C5)c(=O)c3cc2F)c1=O [Example 128, 2-(Bicyclo[2.2.1]heptan-1-yl)-6-(4-ethyl-3-(hydroxymethyl)-5-oxo-4,5-dihydro-1H-1,2,4-triazol-1-yl)-7-fluoro-4-isopropylisoquinolin-1(2H)-one]
pIC50 (human DHODH): 7.72 | pIC50 [1]: 8.15

CCn1c(CO)nn(-c2cc3c(C(C)C)cn(-c4ccnc(OC)c4C)c(=O)c3cc2F)c1=O [Example 129, 6-(4-Ethyl-3-(hydroxymethyl)-5-oxo-4,5-dihydro-1H-1,2,4-triazol-1-yl)-7-fluoro-4-isopropyl-2-(2-methoxy-3-methylpyridin-4-yl)isoquinolin-1(2H)-one]
pIC50 (human DHODH): 7.53 | pIC50 [1]: 7.30

CCn1c(CO)nn(-c2nc3c(C(C)C)cn(-c4ccccc4OC)c(=O)c3cc2F)c1=O [Example 130, 2-(4-Ethyl-3-(hydroxymethyl)-5-oxo-4,5-dihydro-1H-1,2,4-triazol-1-yl)-3-fluoro-8-isopropyl-6-(2-methoxyphenyl)-1,6-naphthyridin-5(6H)-one]
pIC50 (human DHODH): 9.05 | pIC50 [1]: 9.05

CCn1c(CO)nn(-c2cc3c(C(C)C)cn(-c4csnc4C)c(=O)c3cc2F)c1=O [Example 131, 6-(4-Ethyl-3-(hydroxymethyl)-5-oxo-4,5-dihydro-1H-1,2,4-triazol-1-yl)-7-fluoro-4-isopropyl-2-(3-methylisothiazol-4-yl)isoquinolin-1(2H)-one]
pIC50 (human DHODH): 7.47 | pIC50 [1]: 7.30

CCn1c(CO)nn(-c2cc3c(C(C)C)cn(-c4cnsc4C)c(=O)c3cc2F)c1=O [Example 132, 6-(4-Ethyl-3-(hydroxymethyl)-5-oxo-4,5-dihydro-1H-1,2,4-triazol-1-yl)-7-fluoro-4-isopropyl-2-(5-methylisothiazol-4-yl)isoquinolin-1(2H)-one]
pIC50 (human DHODH): 8.43 | pIC50 [1]: 8.40

CCn1c(CO)nn(-c2cc3c(C(C)C)cn(-c4cc(C)ncc4C)c(=O)c3cc2F)c1=O [Example 135, 2-(2,5-Dimethylpyridin-4-yl)-6-(4-ethyl-3-(hydroxymethyl)-5-oxo-4,5-dihydro-1H-1,2,4-triazol-1-yl)-7-fluoro-4-isopropylisoquinolin-1(2H)-one]
pIC50 (human DHODH): 8.16 | pIC50 [1]: 7.30

CCn1c(CO)nn(-c2cc3c(C(C)C)cn(-c4cnccc4C)c(=O)c3cc2F)c1=O [Example 136, 6-(4-Ethyl-3-(hydroxymethyl)-5-oxo-4,5-dihydro-1H-1,2,4-triazol-1-yl)-7-fluoro-4-isopropyl-2-(4-methylpyridin-3-yl)isoquinolin-1(2H)-one]
pIC50 (human DHODH): 8.32 | pIC50 [1]: 8.10

CCn1c(CO)nn(-c2cc3c(C(C)C)cn(-c4ccncc4C)c(=O)c3cc2F)c1=O [Example 137, 6-(4-Ethyl-3-(hydroxymethyl)-5-oxo-4,5-dihydro-1H-1,2,4-triazol-1-yl)-7-fluoro-4-isopropyl-2-(3-methylpyridin-4-yl)isoquinolin-1(2H)-one]
pIC50 (human DHODH): 8.09 | pIC50 [1]: 8.10

CCn1c(CO)nn(-c2cc3c(C(C)C)cn(-c4cccnc4C)c(=O)c3cc2F)c1=O [Example 138, 6-(4-Ethyl-3-(hydroxymethyl)-5-oxo-4,5-dihydro-1H-1,2,4-triazol-1-yl)-7-fluoro-4-isopropyl-2-(2-methylpyridin-3-yl)isoquinolin-1(2H)-one]
pIC50 (human DHODH): 7.09 | pIC50 [1]: < 7.00

CCn1c(CO)nn(-c2cc3c(C(C)C)cn(-c4cc(O)ncc4C)c(=O)c3cc2F)c1=O [Example 139, 6-(4-Ethyl-3-(hydroxymethyl)-5-oxo-4,5-dihydro-1H-1,2,4-triazol-1-yl)-7-fluoro-2-(2-hydroxy-5-methylpyridin-4-yl)-4-isopropylisoquinolin-1(2H)-one]
pIC50 (human DHODH): 7.45 | pIC50 [1]: < 7.00

CCn1c(CO)nn(-c2nc3c(C(C)C)cn(-c4ccccc4C(F)F)c(=O)c3cc2F)c1=O [Example 140]
pIC50 (human DHODH): 8.95 | pIC50 [1]: 9.00

CCn1c(CO)nn(-c2cc3c(C(C)C)cn(-c4ccnc(O)c4C)c(=O)c3cc2F)c1=O [Example 141, 6-(4-Ethyl-3-(hydroxymethyl)-5-oxo-4,5-dihydro-1H-1,2,4-triazol-1-yl)-7-fluoro-2-(2-hydroxy-3-methylpyridin-4-yl)-4-isopropylisoquinolin-1(2H)-one]
pIC50 (human DHODH): 7.98 | pIC50 [1]: < 7.00

[2H]C([2H])([2H])c1ccccc1-n1cc(C(C)C)c2nc(-n3nc(CO)n(CC)c3=O)c(F)cc2c1=O [Example 142, 2-(4-Ethyl-3-(hydroxymethyl)-5-oxo-4,5-dihydro-1H-1,2,4-triazol-1-yl)-3-fluoro-8-isopropyl-6-(o-D3-tolyl)-1,6-naphthyridin-5(6H)-one]
pIC50 (human DHODH): 9.21 | pIC50 [1]: 9.40
